Test results reported in patent US7807704B2, “Bicyclic, nitrogen-containing compounds modulating CXCR4 and/or CCXCKR2” (Chemocentryx, Inc., priority 2006, dated 2010).

Legend:
CCXCKR2 (CXCR7) = molecular target: T1, CCXCKR2 (CXCR7) (Homo sapiens, UniProt P25106); test: displacement of 125I SDF-1 from CCXCKR2 (CXCR7) on MCF-7 and/or MDA-MB-435S cells; assay type: binding; conditions: second activity listed in the cell; read-out: CXCR7 activity (IC50 class)
T1 construct: expressed in transfected cells; host or cells: MDA-MB-435S transfected with pcDNA3.1(+)-hRDC1, and/or MCF-7 (endogenous receptor)
Method: The ability of the compounds to displace the labeled chemokine from the CCXCKR2 receptor sites at multiple concentrations was then determined with the screening process.
Reagents and Cells. ^125I-labeled SDF-1 was purchased from Perkin-Elmer Life Sciences, Inc. (Boston, Mass.). The MCF-7 (adenocarcinoma; mammary gland) cell line was obtained from the American Type Culture Collection (Manassas, Va.) or and was cultured in DMEM (Mediatech, Herndon, Va.) supplemented with 10% fetal bovine serum (FBS) (HyClone Logan, Utah) and bovine insulin (0.01 mg/mL) (Sigma, St. Louis, Mo.) at 37° C. in a humidified incubator at a 5% CO2/air mixture. CCXCKR2 transfected MDA-MB-435S were produced as described below. MDA-MB-435S human breast cancer line, was purchased from ATCC, and cultured in DMEM/10% FBS medium. The complete coding sequence of the gene encoding CCXCKR2 (a.k.a. CXCR7, hRDC1), was isolated from MCF-7 cells using μMACs mRNA isolation kit (Miltenyi Biotec, Auburn, Calif.). DNA contamination was removed by DNase digestion via RNeasy columns (Qiagen, Inc., Valencia, Calif.) and cDNA was generated using GeneAmp RNA PCR Core Kit (Applied Biosystems, Foster City, Calif.). PCR of cDNA samples was performed using Taq PCR Master Mix kit (Qiagen, Inc.) and hRDC1 primers harboring 5′ and 3′ NotI sites (hRDC1F 5′ […]-3′ (SEQ ID NO:11, hRDC1R 5′-[…]-3′) Not I digested PCR product was ligated into Not I digested pcDNA3.1 (+)(Invitrogen, Carlsbad, Calif.) and screened for orientation and sequence confirmed. Plasmid DNA was then isolated from overnight bacterial cultures by Maxiprep (Qiagen, Inc.). Plasmid DNA (10 μg) was added to MDA-MB-435s cells and cells were electroporated (0.22 kV, 960 uF) via Gene Pulser (Biorad laboratories, Hercules, Calif.). 48 hr post-electroporation, cells were transferred to selection medium (1000 ug/ml G418).
Binding Analysis. Target compounds were tested to determine their ability to bind with CCXCKR2 sites on MCF-7 and/or MDA-MB-435S cells. Efficiency-maximized radioligand binding using filtration protocols as described in Dairaghi D J, et al., HHV8-encoded vMIP-I selectively engages chemokine receptor CCR5. Agonist and antagonist profiles of viral chemokines., J. Biol. Chem. 1999 Jul. 30; 274(31): 21569-74 and Gosling J, et al., Cutting edge: identification of a novel chemokine receptor that binds dendritic cell-and T cell-active chemokines including ELC, SLC, and TECK., J. Immunol. 2000 Mar. 15; 164(6):2851-6 was used.
In these assays, MCF-7 and/or MDA-MB-435S cells were interrogated with the target compounds and the ability of these compounds to displace ^125I radiolabeled SDF-1 was assessed using the protocol described in Dairaghi and Gosling. The target compounds were added to the plate to the indicated concentration and were then incubated with cells followed by the addition of radiolabeled chemokine (^125I SDF-1) for 3 hr at 4° C. in the following binding medium (25 mM HEPES, 140 mM NaCl, 1 mM CaCl2, 5 mM MgCl2 and 0.2% bovine serum albumin, adjusted to pH 7.1). All assays were then incubated for 3 hrs at 4° C. with gentle agitation. Following incubation in all binding assays, reactions were aspirated onto PEI-treated GF/B glass filters (Packard) using a cell harvester (Packard) and washed twice (25 mM HEPES, 500 mM NaCl, 1 mM CaCl2, 5 mM MgCl2, adjusted to pH 7.1). Scintillant (MicroScint 10, Packard) was added to the wells, and the filters were counted in a Packard Topcount scintillation counter. Data were analyzed and plotted using Prism (GraphPad Prism version 3.0a for Macintosh, GraphPad Software, www.graphpad.com).

CXCR4 = molecular target: T2, CXCR4 (Homo sapiens, UniProt P61073); test: chemotaxis assay or 125I SDF-1α binding assay for CXCR4; conditions: first or only activity listed, read-out: CXCR4 activity (IC50 class)
T2 construct: all endogenously expressing CXCR4; endogenous in cells; host or cells: CEM-Nkr, CCRF-CEM, Jurkat, Molt-4; IL-2 stimulated human lymphocytes
Method: CEM-Nkr, CCRF-CEM (ATCC #CCL-119), Jurkat (ATCC #TIB-152), Molt-4 (ATCC# CRL-1582), cell lines, all endogenously expressing CXCR4, were used in compound screening and subsequent assays. These cell lines were cultured as a suspension in RPMI-1640 medium supplemented with 2 mM L-glutamine, 1.5 g/L sodium bicarbonate, 4.5 g/L glucose, 10 mM HEPES, 1 mM sodium pyruvate, and 10% FBS. Cells were grown under 5% CO2/95% air, 100% humidity at 37° C. and subcultured twice weekly at 1:6 (cells were cultured at a density range of 1×10^5 to 2×10^6 cells/mL) and harvested at 1×10^6 cells/mL. • b) Isolated Human IL-2 Stimulated Lymphocytes
Cells were centrifuged and resuspended in assay buffer (20 mM HEPES pH 7.1, 140 mM NaCl, 1 mM CaCl2, 5 mM MgCl2, and with 0.2% bovine serum albumin) to a concentration of 4×10^6 cells/mL for cell lines. Binding assays were set up as follows. […] Then 0.1 mL of ^125I labeled SDF-1α (obtained from Perkin Elmer Life Sciences, Boston, Mass.) diluted in assay buffer to a final concentration of ˜50 pM, yielding ˜30,000 cpm per well, was added, the plates sealed and incubated for approximately 3 hours at 4° C. on a shaker platform. Reactions were aspirated onto GF/B glass filters pre-soaked in 0.3% polyethyleneimine (PEI) solution, on a vacuum cell harvester (Packard Instruments; Meriden, Conn.). Scintillation fluid (40 μl; Microscint 20, Packard Instruments) was added to each well, the plates were sealed and radioactivity measured in a Topcount scintillation counter (Packard Instruments). Control wells containing either diluent only (for total counts) or excess SDF1 a (1 μg/mL, for non-specific binding) were used to calculate the percent of total inhibition for compound. The computer program Prism from GraphPad, Inc. (San Diego, Calif.) was used to calculate IC50 values. IC50 values are those concentrations required to reduce the binding of radiolabeled SDF-1α to the receptor by 50%. (For further descriptions of ligand binding and other functional assays, see Dairaghi, et al., J. Biol. Chem. 274:21569-21574 (1999), Penfold, et al., Proc. Natl. Acad. Sci. USA. 96:9839-9844 (1999), and Dairaghi, et al., J. Biol. Chem. 272:28206-28209 (1997)).
Chemotaxis assays were performed using 5 μm pore polycarbonate, polyvinylpyrrolidone-coated filters in 96-well chemotaxis chambers (Neuroprobe; Gaithersburg, Md.) using chemotaxis buffer (Hank's balanced salt solution (HBSS) and 1% FBS). CXCR4 ligand (i.e., SDF1a, R&D Systems; Minneapolis, Minn.) are use to evaluate compound mediated inhibition of CXCR4 mediated migration. Other chemokines (i.e., TECK; R&D Systems; Minneapolis, Minn.) are used as specificity controls. The lower chamber was loaded with 29 μl of chemokine (i.e., 0.1 nM SDF1a); the top chamber contained 50,000 Jurkat cells or IL-2 lymphocytes in 20 μl. The chambers were incubated 2 hours at 37° C., and the number of cells in the lower chamber quantified either by direct cell counts in five high powered fields per well or by the CyQuant assay (Molecular Probes), a fluorescent dye method that measures nucleic acid content and microscopic observation.
To evaluate small organic molecules that prevent the CXCR4 from binding ligand, an assay was employed that detected radioactive ligand (i.e, SDF-1) binding to cells expressing CXCR4 on the cell surface (for example, CEM-Nkr cells). For compounds that inhibited binding, whether competitive or not, fewer radioactive counts are observed when compared to uninhibited controls.
Equal numbers of cells were added to each well in the plate. The cells were then incubated with radiolabeled […]. Unbound ligand was removed by washing the cells, and bound ligand was determined by quantifying radioactive counts. Cells that were incubated without any organic compound gave total counts; non-specific binding was determined by incubating the cells with unlabeled ligand and labeled ligand. Percent inhibition was determined by the equation: […]

T2 sequence (P61073 whole entry): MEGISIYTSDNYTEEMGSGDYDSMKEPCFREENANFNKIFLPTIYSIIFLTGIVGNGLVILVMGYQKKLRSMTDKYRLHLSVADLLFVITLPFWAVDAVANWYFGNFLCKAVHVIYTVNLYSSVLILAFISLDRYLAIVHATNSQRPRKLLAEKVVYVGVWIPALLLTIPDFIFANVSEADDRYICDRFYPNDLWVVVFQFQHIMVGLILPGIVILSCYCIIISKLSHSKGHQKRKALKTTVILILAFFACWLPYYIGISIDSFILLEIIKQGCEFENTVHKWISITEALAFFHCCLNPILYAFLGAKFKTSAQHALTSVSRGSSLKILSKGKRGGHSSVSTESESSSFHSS
T1 sequence (P25106 whole entry): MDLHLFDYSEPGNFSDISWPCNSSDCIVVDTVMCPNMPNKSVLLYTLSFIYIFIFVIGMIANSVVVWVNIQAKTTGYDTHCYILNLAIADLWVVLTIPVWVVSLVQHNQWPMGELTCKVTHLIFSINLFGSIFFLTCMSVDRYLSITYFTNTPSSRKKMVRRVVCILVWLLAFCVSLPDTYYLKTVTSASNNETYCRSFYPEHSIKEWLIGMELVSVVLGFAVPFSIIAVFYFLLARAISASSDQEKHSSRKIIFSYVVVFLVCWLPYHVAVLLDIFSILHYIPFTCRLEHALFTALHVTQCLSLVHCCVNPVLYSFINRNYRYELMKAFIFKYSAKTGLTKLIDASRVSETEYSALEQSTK

SMILES | IC50 (CCXCKR2 (CXCR7)) | IC50 (CXCR4)
CN(CCNC(=O)Cn1ccc2ccc(-c3ccc(F)cc3)cc21)C1CCCCC1 [No 23] | < 1000 nM | < 1000 nM
Cc1ccc(-c2ccc3ccn(CC(=O)NCCN(C)C4CCCCC4)c3c2)cc1 [No 24] | 1000 to 10000 nM | < 1000 nM
COc1ccc(-c2ccc3ccn(CC(=O)NCCN(C)C4CCCCC4)c3c2)cc1 [No 26] | 1000 to 10000 nM | < 1000 nM
CN(CCNC(=O)Cn1ccc2ccc(-c3ccc(Cl)c(Cl)c3)cc21)C1CCCCC1 [No 27] | < 1000 nM | < 1000 nM
CN(CCNC(=O)Cn1ccc2ccc(-c3cccc(C#N)c3)cc21)C1CCCCC1 [No 28] | 1000 to 10000 nM | 1000 to 10000 nM

Now from value to compound:

IC50 (CCXCKR2 (CXCR7)) | IC50 (CXCR4) | SMILES
1000 to 10000 nM | < 1000 nM | CCCCc1ccc(-c2ccc3ccn(CC(=O)NCCN(C)C4CCCCC4)c3c2)cc1 [No 31]
1000 to 10000 nM | < 1000 nM | Cc1cc(C)cc(-c2ccc3ccn(CC(=O)NCCN(C)C4CCCCC4)c3c2)c1 [No 32]
< 1000 nM | < 1000 nM | Cc1cc(-c2ccc3ccn(CC(=O)NCCN(C)C4CCCCC4)c3c2)ccc1F [No 33]
1000 to 10000 nM | < 1000 nM | CN(CCNC(=O)Cn1ccc2ccc(-c3ccc4c(ccn4C)c3)cc21)C1CCCCC1 [No 35]
